In patent US20260199484A1, “PROTAC DEGRADERS OF MLLT1 AND/OR MLLT3” (DARK BLUE THERAPEUTICS LTD, priority 2024, published 2026):
pIC50: −log10 of the molar value.

Assays:
[1] = target: T1, MLLT1 (Homo sapiens, UniProt Q03111); test: MLLT1 HTRF IC50 determination assay (H3K9cro peptide displacement); type: binding
T1 sequence (Q03111 1-559): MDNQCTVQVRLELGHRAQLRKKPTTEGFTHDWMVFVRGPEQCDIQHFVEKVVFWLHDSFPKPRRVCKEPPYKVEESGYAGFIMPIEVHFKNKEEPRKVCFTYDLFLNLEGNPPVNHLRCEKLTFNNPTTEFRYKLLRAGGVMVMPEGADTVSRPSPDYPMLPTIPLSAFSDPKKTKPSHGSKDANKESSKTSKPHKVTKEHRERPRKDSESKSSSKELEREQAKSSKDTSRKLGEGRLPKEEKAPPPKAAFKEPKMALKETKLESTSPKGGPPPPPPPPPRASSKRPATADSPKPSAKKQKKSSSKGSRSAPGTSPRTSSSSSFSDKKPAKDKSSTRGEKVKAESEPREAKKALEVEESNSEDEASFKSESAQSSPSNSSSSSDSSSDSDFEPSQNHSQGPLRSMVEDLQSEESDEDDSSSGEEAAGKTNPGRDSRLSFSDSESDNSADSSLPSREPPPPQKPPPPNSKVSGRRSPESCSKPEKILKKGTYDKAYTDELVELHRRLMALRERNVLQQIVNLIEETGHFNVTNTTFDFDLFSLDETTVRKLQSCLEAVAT
Excerpt: (§1) This procedure is intended to measure the interaction between YEATS proteins and histone peptides modified by an appropriate epigenetic mark and can be used to assay compounds which bind to the YEATS proteins and inhibit this interaction. The assay uses 6His tagged MLLT1 or MLLT3 with an anti-6His antibody conjugated with Eu^3+ chelate (donor) and a biotinylated peptide with Streptavidin conjugated XL-665 (acceptor). When the donor and acceptor labels are in close proximity, by binding of the peptide by MLLT1 or MLLT3, the excitation of the donor (337 nm) triggers a Fluorescence Resonance Energy Transfer (FRET) to the acceptor which then fluoresces at specific wavelength (665 nm).
(§2) This step optimises the protein/peptide ratio that will be used in HTRF screening assay in order to allow the best signal-to-noise ratio. Each new purified protein should be titrate this way as the signal-to-noise ratio may differ from different protein batches. Displacement assay for MLLT1 and MLLT3 was performed by using H3K9 cro peptide (ARTKQTAR(Kcrot)STGGKAPRKQLYK(biotin)).
(§3) A serial dilution of 4× solution of biotinylated peptide was prepared in assay buffer (25 mM HEPES, 20 mM NaCl, 0.05% BSA, 0.05% Tween-20, pH 7.0) covering concentrations from 3.2 μM to 0.2 nM. and 5 μL of each dilution were transferred horizontally to fill 15 columns of a white ProxiPlate-384 Plus shallow well Microplate (Perkin Elmer, USA). A sixteenth column of buffer was also included for a background reference. In parallel, a serial dilution of the 6His-tag protein of interest was prepared in the same way and 5 μL of each dilution were vertically added to the wells containing the peptide dilutions. Buffer has been transferred to the last line of the plate in order to make a no-protein reference. The microplate has been covered and incubated 1 hour at room temperature. A 2× detection mix was prepared in assay buffer by diluting streptavidin conjugated with XL-665 (610SAXLB, Cisbio Bioassays, France) to 1/2000 and anti-6His(Eu) chelate (LANCE Eu-W1024 Anti-6×His, ADO111, Perkinelmer LAS (UK)LTD) to 1/20000, 10 μL were added to each well and the plate has been incubated for 1 to 24 hours at room temperature in the dark. The plate was read in the Pherastar using the HTRF module with dual emission protocol (A=ex. 320 nm em. 665 nm, B=ex. 320 nm em. 620 nm).
(§4) The HTRF ratio was calculated as channel A/B*10000 and the specific signal as follow: specific signal=HTRF Ratio Positive signal—HTRF Ratio Negative signal (without protein). The concentrations of protein and peptide that allow the maximum specific signal without saturation were selected to perform HRTF screening assay described below.
(§5) The compounds were dissolved in DMSO at a stock concentration of 10 mM and dispensed into microplate using the Echo acoustic liquid handler (Labcyte, Beckman Coulter, USA). The assay covers a window of compound concentrations from 20 μM to 20 nM spread in 11 data points in duplicate. Solvent and compound controls were added to each plate in order to calculate the background signal.
(§6) Ten microliters of 2× mix of 6His-protein and biotinylated peptide, the concentrations were determined above, were added to the dispensed compounds and incubated for one hour at room temperature in the dark. Ten microliters of the 2× detection mix was added to each well and the plate was incubated for another hour at room temperature in the dark and the plate was read in order to calculate the HTRF specific signal. The % inhibition values as follows:
(§7) The IC50 values were determined by plotting % inhibition vs compound concentration and fitting the data to a non-linear sigmoidal dose response equation (4 parameter fit): […]

[2] = target: T2, MLLT3 (Homo sapiens, UniProt P42568); test: MLLT3 HTRF IC50 determination assay (H3K9cro peptide displacement); type: binding
T2 sequence (P42568 1-568): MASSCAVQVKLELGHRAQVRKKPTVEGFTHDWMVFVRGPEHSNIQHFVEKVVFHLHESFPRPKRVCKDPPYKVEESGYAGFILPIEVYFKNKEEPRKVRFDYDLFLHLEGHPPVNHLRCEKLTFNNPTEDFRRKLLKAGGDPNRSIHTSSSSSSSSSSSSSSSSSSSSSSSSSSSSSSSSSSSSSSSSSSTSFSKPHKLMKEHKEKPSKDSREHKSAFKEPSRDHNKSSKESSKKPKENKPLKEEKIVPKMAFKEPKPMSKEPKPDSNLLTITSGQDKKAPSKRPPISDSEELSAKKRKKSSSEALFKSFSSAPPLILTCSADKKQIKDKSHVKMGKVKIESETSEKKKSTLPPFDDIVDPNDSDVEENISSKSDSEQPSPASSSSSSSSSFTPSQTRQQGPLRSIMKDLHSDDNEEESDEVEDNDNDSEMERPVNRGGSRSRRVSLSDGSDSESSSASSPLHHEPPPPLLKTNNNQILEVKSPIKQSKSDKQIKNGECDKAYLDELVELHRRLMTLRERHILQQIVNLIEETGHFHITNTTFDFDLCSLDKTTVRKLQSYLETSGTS
Excerpt: as §1, §2, §3, §4, §5, §6, §7

Row | Compound | pIC50 ([1]; category, Table 4) | pIC50 ([2]; category, Table 4) | pIC50 ([1]; Table 5) | pIC50 ([2]; Table 5)
1 | Cc1nn(C)c2cc(C(=O)Nc3cc4[nH]c(C5CCCN5C)cc4cn3)ccc12 (racemic) [Example 75, rac-1,3-dimethyl-N-(2-(1-methylpyrrolidin-2-yl)-1H-pyrrolo[3,2-c]pyridin-6-yl)-1H-indazole-6-carboxamide] | ≥ 7.00 | 6.00 to 7.00 |  | 
2 | Cc1nn(C)c2cc(C(=O)Nc3cc4[nH]c([C@@H]5CCCN5C)cc4cn3)ccc12 (single isomer, unassigned) [Example 77] | 6.00 to 7.00 | 5.00 to 6.00 |  | 
3 | CN1CCCC1c1cc2cnc(NC(=O)c3ccc4c(cnn4C)c3)cc2[nH]1 (single isomer, unassigned) [Example 78, 1-methyl-N-{2-[(rel-2S)-1-methylpyrrolidin-2-yl]-1H-pyrrolo[3,2-c]pyridin-6-yl}indazole-5-carboxamide] | 5.00 to 6.00 | 5.00 to 6.00 |  | 
4 | CN1CCCC1c1cc2cnc(NC(=O)c3ccc4c(cnn4C)c3)cc2[nH]1 (single isomer, unassigned) [Example 79, 1-methyl-N-{2-[(rel-2R)-1-methylpyrrolidin-2-yl]-1H-pyrrolo[3,2-c]pyridin-6-yl}indazole-5-carboxamide] | ≥ 7.00 | ≥ 7.00 |  | 
5 | CCN1CCCC1c1cc2cnc(NC(=O)c3ccc4c(C)nn(C)c4c3)cc2[nH]1 (single isomer, unassigned) [Example 84, N-{2-[(rel-2R)-1-ethylpyrrolidin-2-yl]-1H-pyrrolo[3,2-c]pyridin-6-yl}-1,3-dimethylindazole-6-carboxamide] | 6.00 to 7.00 | 6.00 to 7.00 |  | 
6 | CCN1CCCC1c1cc2cnc(NC(=O)c3ccc4c(C)nn(C)c4c3)cc2[nH]1 (single isomer, unassigned) [Example 85, N-{2-[(rel-2S)-1-ethylpyrrolidin-2-yl]-1H-pyrrolo[3,2-c]pyridin-6-yl}-1,3-dimethylindazole-6-carboxamide] | 5.00 to 6.00 |  |  | 
7 | CN1CCCC1c1[nH]c2cc(NC(=O)c3ccc4c(cnn4C)c3)ncc2c1F (single isomer, unassigned) [Example 86, N-{3-fluoro-2-[(rel-2S)-1-methylpyrrolidin-2-yl]-1H-pyrrolo[3,2-c]pyridin-6-yl}-1-methylindazole-5-carboxamide] | 5.00 to 6.00 | 5.00 to 6.00 |  | 
8 | CN1CCCC1c1[nH]c2cc(NC(=O)c3ccc4c(cnn4C)c3)ncc2c1F (single isomer, unassigned) [Example 87, N-{3-fluoro-2-[(rel-2R)-1-methylpyrrolidin-2-yl]-1H-pyrrolo[3,2-c]pyridin-6-yl}-1-methylindazole-5-carboxamide] | ≥ 7.00 | ≥ 7.00 |  | 
9 | Cc1nn(C)c2cc(C(=O)Nc3cc4[nH]c(C5CCCN5C)c(F)c4cn3)ccc12 (single isomer, unassigned) [Example 88, N-{3-fluoro-2-[(rel-2R)-1-methylpyrrolidin-2-yl]-1H-pyrrolo[3,2-c]pyridin-6-yl}-1,3-dimethylindazole-6-carboxamide] | ≥ 7.00 | ≥ 7.00 | 7.77 | 7.43
10 | Cc1nn(C)c2cc(C(=O)Nc3cc4[nH]c(C5CCCN5C)c(F)c4cn3)ccc12 (single isomer, unassigned) [Example 89, N-{3-fluoro-2-[(rel-2S)-1-methylpyrrolidin-2-yl]-1H-pyrrolo[3,2-c]pyridin-6-yl}-1,3-dimethylindazole-6-carboxamide] | 6.00 to 7.00 | 5.00 to 6.00 |  | 
11 | Cc1c(C2CCCN2C)[nH]c2cc(NC(=O)c3ccc4c(C)nn(C)c4c3)ncc12 (single isomer, unassigned) [Example 90, 1,3-dimethyl-N-{3-methyl-2-[(rel-2R)-1-methylpyrrolidin-2-yl]-1H-pyrrolo[3,2-c]pyridin-6-yl}indazole-6-carboxamide] | ≥ 7.00 | ≥ 7.00 | 7.92 | 7.35
12 | Cc1c(C2CCCN2C)[nH]c2cc(NC(=O)c3ccc4c(C)nn(C)c4c3)ncc12 (single isomer, unassigned) [Example 91, 1,3-dimethyl-N-{3-methyl-2-[(rel-2S)-1-methylpyrrolidin-2-yl]-1H-pyrrolo[3,2-c]pyridin-6-yl}indazole-6-carboxamide] | 5.00 to 6.00 | 5.00 to 6.00 |  | 
13 | Cc1nc(NC(=O)c2ccc3c(C)nn(C)c3c2)cc2[nH]c(C3CCCN3C)cc12 (single isomer, unassigned) [Example 92, 1,3-dimethyl-N-{4-methyl-2-[(rel-2R)-1-methylpyrrolidin-2-yl]-1H-pyrrolo[3,2-c]pyridin-6-yl}indazole-6-carboxamide] | ≥ 7.00 | ≥ 7.00 | 7.43 | 7.20
14 | Cc1nc(NC(=O)c2ccc3c(C)nn(C)c3c2)cc2[nH]c(C3CCCN3C)cc12 (single isomer, unassigned) [Example 93, 1,3-dimethyl-N-{4-methyl-2-[(rel-2S)-1-methylpyrrolidin-2-yl]-1H-pyrrolo[3,2-c]pyridin-6-yl}indazole-6-carboxamide] | 5.00 to 6.00 | 5.00 to 6.00 |  | 
15 | Cc1nn(C)c2cc(C(=O)Nc3cc4[nH]c([C@H]5CCCN5C)c(Cl)c4cn3)ccc12 [Example 80, N-{3-chloro-2-[(2R)-1-methylpyrrolidin-2-yl]-1H-pyrrolo[3,2-c]pyridin-6-yl}-1,3-dimethylindazole-6-carboxamide] | ≥ 7.00 | ≥ 7.00 | 8.22 | 7.66
16 | Cc1nn(C)c2cc(C(=O)Nc3cc4[nH]c([C@@H]5CCCN5C)c(Cl)c4cn3)ccc12 [Example 81, N-{3-chloro-2-[(2S)-1-methylpyrrolidin-2-yl]-1H-pyrrolo[3,2-c]pyridin-6-yl}-1,3-dimethylindazole-6-carboxamide] | 6.00 to 7.00 | 5.00 to 6.00 |  | 
